Experimental data as given in patent publication US20090018134A1, “Compounds - 945” (AstraZeneca AB, priority 2007, published 2009).
Where two headings read alike, the source gives them in different places.

Target: T1, mTOR (Homo sapiens, UniProt P42345)
T1 construct: FLAG; made in house
Assay: In Vitro mTOR Kinase Assay (Echo), Test (a)(ii)
Assay type: biochemical
How it was run: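 AlphaScreen read-out: biotinylated substrate phosphorylation was detected with anti-p70 S6K (T389) 1A5 antibody, Protein A acceptor and streptavidin donor beads after overnight dark incubation at room temperature. Enzyme was FLAG-mTOR 1362-2549 from stable HEK293 cells.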

[1] = table of enzyme assay Test (a)(ii), read-out: Test (a)(ii) IC50
[2] = read-out: mTOR Kinase Assay (Echo)

T1 sequence (P42345 1362-2549): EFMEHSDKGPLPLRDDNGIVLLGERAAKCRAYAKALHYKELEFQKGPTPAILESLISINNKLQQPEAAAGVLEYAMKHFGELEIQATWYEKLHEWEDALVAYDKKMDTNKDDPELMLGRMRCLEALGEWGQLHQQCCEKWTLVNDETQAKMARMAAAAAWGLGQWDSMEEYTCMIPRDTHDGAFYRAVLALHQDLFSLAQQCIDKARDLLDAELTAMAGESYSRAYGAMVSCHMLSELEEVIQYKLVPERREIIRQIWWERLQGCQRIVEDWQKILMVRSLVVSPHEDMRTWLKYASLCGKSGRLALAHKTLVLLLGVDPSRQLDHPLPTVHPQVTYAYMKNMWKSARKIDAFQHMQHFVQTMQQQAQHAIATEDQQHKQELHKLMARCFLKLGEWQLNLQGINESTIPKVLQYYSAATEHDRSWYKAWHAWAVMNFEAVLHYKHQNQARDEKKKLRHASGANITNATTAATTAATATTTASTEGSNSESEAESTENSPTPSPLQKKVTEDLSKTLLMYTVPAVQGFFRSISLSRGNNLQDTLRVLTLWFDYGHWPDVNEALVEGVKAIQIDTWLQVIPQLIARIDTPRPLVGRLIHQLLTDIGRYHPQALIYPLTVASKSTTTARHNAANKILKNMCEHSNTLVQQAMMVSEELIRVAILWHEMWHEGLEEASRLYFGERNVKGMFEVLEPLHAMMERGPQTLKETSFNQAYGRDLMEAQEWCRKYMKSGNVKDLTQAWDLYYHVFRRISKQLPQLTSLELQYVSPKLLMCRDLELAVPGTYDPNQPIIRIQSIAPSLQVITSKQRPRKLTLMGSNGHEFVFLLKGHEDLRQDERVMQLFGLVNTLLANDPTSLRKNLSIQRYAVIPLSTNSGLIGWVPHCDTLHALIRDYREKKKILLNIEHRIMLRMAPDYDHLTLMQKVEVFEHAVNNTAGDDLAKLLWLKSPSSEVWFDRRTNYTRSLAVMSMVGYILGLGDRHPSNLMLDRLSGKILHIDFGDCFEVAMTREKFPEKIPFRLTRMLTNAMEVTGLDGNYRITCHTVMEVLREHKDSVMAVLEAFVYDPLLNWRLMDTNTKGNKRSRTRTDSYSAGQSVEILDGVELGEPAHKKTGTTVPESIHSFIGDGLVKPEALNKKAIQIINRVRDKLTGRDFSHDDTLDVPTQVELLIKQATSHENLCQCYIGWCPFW

Row | Structure (SMILES) | IC50 [1] | IC50 [2]
1 | C[C@H]1COCCN1c1cc(C2(S(=O)(=O)CCCO)CC2)nc(-c2ccc(NC(=S)Nc3cnn(C)c3)cc2)n1 [Example 37j, 1-[4-[4-[1-(3-hydroxypropylsulfonyl)cyclopro-pyl]-6-[(3S)-3-methylmorpholin-4-yl]pyrimidin-2-yl]phenyl]-3-(1-methylpyrazol-4-yl)thiourea] | 30.9 nM | 
2 | C[C@H]1COCCN1c1cc(C2(S(=O)(=O)C(C)(C)C)CC2)nc(-c2ccc(NC(=O)NC(C)(C)CO)cc2)n1 [Example 18k, 1-[4-[4-(1-tert-butylsulfonylcyclopropyl)-6-[(3S)-3-methylmorpholin-4-yl]pyrimidin-2-yl]phenyl]-3-(1-hydroxy-2-methylpropan-2-yl)urea] | 11.3 nM | 
3 | CC(C)CNC(=O)Nc1ccc(-c2nc(N3CCOC[C@@H]3C)cc(C3(S(=O)(=O)C4CC4)CC3)n2)cc1 [Example 3c, 1-[4-[4-(1-cyclopropylsulfonylcyclopropyl)-6-[(3S)-3-methylmorpholin-4-yl]pyrimidin-2-yl]phenyl]-3-(2-methylpropyl)urea] |  | 12.4 nM
4 | CCS(=O)(=O)C1(c2cc(N3CCOC[C@@H]3C)nc(-c3ccc(NC(=O)Nc4ccc(C(F)(F)F)cc4)cc3)n2)CC1 [Example 11k, 1-[4-[4-(1-ethylsulfonylcyclopropyl)-6-[(3S)-3-methylmorpholin-4-yl]pyrimidin-2-yl]phenyl]-3-[4-(trifluoromethyl)phenyl]urea] |  | 3.32 nM
5 | C[C@H]1COCCN1c1cc(C2(S(C)(=O)=O)CCC2)nc(-c2ccc(NC(=O)NCc3ncc[nH]3)cc2)n1 [Example 5n, 3-(1H-imidazol-2-ylmethyl)-1-[4-[4-[(3S)-3-methylmorpholin-4-yl]-6-(1-methylsulfonylcyclobutyl)pyrimidin-2-yl]phenyl]urea] |  | 8.28 nM
6 | CNC(=O)Nc1ccc(-c2nc(N3CCOC[C@@H]3C)cc(C3(S(=O)(=O)c4cncc(F)c4)CC3)n2)cc1 [Example 17b, 1-[4-[4-[1-(5-fluoropyridin-3-yl)sulfonylcyclopropyl]-6-[(3S)-3-methylmorpholin-4-yl]pyrimidin-2-yl]phenyl]-3-methylurea] | 0.584 nM | 
7 | CC(C)CNC(=O)Nc1ccc(-c2nc(N3CCOC[C@@H]3C)cc(C3(S(=O)(=O)C(C)(C)C)CC3)n2)cc1 [Example 18c, 1-[4-[4-(1-tert-butylsulfonylcyclopropyl)-6-[(3S)-3-methylmorpholin-4-yl]pyrimidin-2-yl]phenyl]-3-(2-methylpropyl)urea] | 32 nM | 
8 | C[C@H]1COCCN1c1cc(C2(S(=O)(=O)c3ccc(Cl)cc3)CC2)nc(-c2ccc(NC(=O)NCC(F)F)cc2)n1 [Example 64ah, 1-[4-[4-[1-(4-chlorophenyl)sulfonylcyclopropyl]-6-[(3S)-3-methylmorpholin-4-yl]pyrimidin-2-yl]phenyl]-3-(2,2-difluoroethyl)urea] | 6.84 nM | 
9 | Cc1ccccc1S(=O)(=O)C1(c2cc(N3CCOC[C@@H]3C)nc(-c3ccc(NC(=O)NC4CC4)cc3)n2)CC1 [Example 54a, 3-cyclopropyl-1-[4-[4-[(3S)-3-methylmorpholin-4-yl]-6-[1-(2-methylphenyl)sulfonylcyclo-propyl]pyrimidin-2-yl]phenyl]urea] | 9.18 nM | 
10 | C[C@H]1COCCN1c1cc(C2(S(=O)(=O)c3ccc(NCCO)c(F)c3)CC2)nc(-c2ccc(NC(=O)NCCO)cc2)n1 [Example 64n, 1-[4-[4-[1-[3-fluoro-4-(2-hydroxyethylamino)phenyl]sulfon-ylcyclopropyl]-6-[(3S)-3-methylmorpholin-4-yl]pyrimidin-2-yl]phenyl]-3-(2-hydroxyethyl)urea] | 16.1 nM | 
11 | CNC(=O)Nc1ccc(-c2nc(N3CCOC[C@@H]3C)cc(C3(S(=O)(=O)c4ccc(F)c(F)c4)CC3)n2)cc1 [Example 64g, 1-[4-[4-[1-(3,4-difluorophenyl)sulfonylcyclopro-pyl]-6-[(3S)-3-methylmorpholin-4-yl]pyrimidin-2-yl]phenyl]-3-methylurea] | 34.2 nM | 
12 | CC[C@H]1COCCN1c1cc(C2(S(=O)(=O)c3ccccc3)CC2)nc(-c2ccc(NC(=O)NCC(F)F)cc2)n1 [Example 74d, 1-[4-[4-[1-(benzenesulfonyl)cyclopropyl]-6-[(3S)-3-ethylmorpholin-4-yl]pyrimidin-2-yl]phenyl]-3-(2,2-difluoroethyl)urea] | 2.79 nM | 
13 | CNC(=S)Nc1ccc(-c2nc(N3CCOC[C@@H]3C)cc(C3(S(=O)(=O)c4ccncc4)CC3)n2)cc1 [Example 37af, 3-methyl-1-[4-[4-[(3S)-3-methylmorpholin-4-yl]-6-(1-pyridin-4-ylsulfonylcyclopropyl)pyrimidin-2-yl]phenyl]thiourea] | 23.3 nM | 
14 | CNC(=O)Nc1ccc(-c2nc(N3CCOCC3)cc(C3(S(=O)(=O)C4CC4)CCCC3)n2)cc1 [Example 13k, 1-[4-[4-(1-cyclopropylsulfonylcyclopentyl)-6-morpholin-4-ylpyrimidin-2-yl]phenyl]-3-methylurea] | 17.9 nM | 
15 | C[C@H]1COCCN1c1cc(C2(S(=O)(=O)c3cc(F)cc(F)c3)CC2)nc(-c2ccc(NC(=O)Nc3ccccn3)cc2)n1 [Example 19b, 1-[4-[4-[1-(3,5-difluorophenyl)sulfonylcyclopro-pyl]-6-[(3S)-3-methylmorpholin-4-yl]pyrimidin-2-yl]phenyl]-3-pyridin-2-ylurea] | 1.19 nM | 
16 | CNC(=O)Nc1ccc(-c2nc(N3CCOC[C@@H]3C)cc(C3(S(=O)(=O)c4ccc(F)c(Cl)c4)CC3)n2)cc1 [Example 95a, 1-[4-[4-[1-(3-chloro-4-fluorophenyl)sulfonyl-cyclopropyl]-6-[(3S)-3-methylmorpholin-4-yl]pyrimidin-2-yl]phenyl]-3-methylurea] | 13.9 nM | 
17 | CN(C)CCNC(=O)Nc1ccc(-c2nc(N3CCOCC3)cc(C3(S(C)(=O)=O)CCCC3)n2)cc1 [Example 12n, 3-(2-dimethylaminoethyl)-1-[4-[4-(1-methylsulfonylcyclopentyl)-6-morpholin-4-ylpyrimidin-2-yl]phenyl]urea] |  | 238 nM
18 | CCNC(=O)Nc1ccc(-c2nc(N3CCOC[C@@H]3C)cc(C3(S(=O)(=O)C4CCOCC4)CC3)n2)cc1 [Example 94b, 1-ethyl-3-[4-[4-[(3S)-3-methylmorpholin-4-yl]-6-[1-(oxan-4-ylsulfonyl)cyclopropyl]pyrimidin-2-yl]phenyl]urea] | 12.2 nM | 
19 | C[C@H]1COCCN1C(=O)C1(c2cc(N3CCOCC3)nc(-c3ccc(NC(=O)NCCO)cc3)n2)CC1 [Example 34a, 3-(2-hydroxyethyl)-1-[4-[4-[1-[(3S)-3-methylmorpholine-4-carbonyl]cyclopropyl]-6-morpholin-4-ylpyrimidin-2-yl]phenyl]urea] | 38.7 nM | 
20 | Cc1nc(C)c(S(=O)(=O)C2(c3cc(N4CCOC[C@@H]4C)nc(-c4ccc(NC(=O)NCCO)cc4)n3)CC2)s1 [Example 78c, 1-[4-[4-[1-[(2,4-dimethyl-1,3-thiazol-5-yl)sulfonyl]cyclopropyl]-6-[(3S)-3-methylmorpholin-4-yl]pyrimidin-2-yl]phenyl]-3-(2-hydroxyethyl)urea] | 20.9 nM | 
21 | CCS(=O)(=O)C1(c2cc(N3CCOC[C@@H]3C)nc(-c3ccc(NC(=O)NC(C)(C)CO)cc3)n2)CC1 [Example 11f, 1-[4-[4-(1-ethylsulfonylcyclopropyl)-6-[(3S)-3-methylmorpholin-4-yl]pyrimidin-2-yl]phenyl]-3-(1-hydroxy-2-methyl-propan-2-yl)urea] |  | 3.37 nM
22 | Cc1ccc(F)cc1S(=O)(=O)C1(c2cc(N3CCOC[C@@H]3C)nc(-c3ccc(NC(=O)NCC(F)F)cc3)n2)CC1 [Example 61d, 3-(2,2-difluoroethyl)-1-[4-[4-[1-(5-fluoro-2-methylphenyl)sulfonylcyclopropyl]-6-[(3S)-3-methylmorphohn-4-yl]pyrimidin-2-yl]phenyl]urea] | 43.8 nM | 
23 | CCNC(=O)Nc1ccc(-c2nc(N3CCOC[C@@H]3C)cc(C3(S(=O)(=O)c4ccc(OC(F)F)cc4)CC3)n2)cc1 [Example 64b, 3-[4-[4-[1-[4-(difluoromethoxy)phenyl]sulfonyl-cyclopropyl]-6-[(3S)-3-methylmorpholin-4-yl]pyrimidin-2-yl]phenyl]-1-ethylurea] | 6.78 nM | 
24 | CNC(=O)Nc1ccc(-c2nc(N3CCOC[C@@H]3C)cc(C3(S(=O)(=O)c4c(C)noc4C)CC3)n2)cc1 [Example 59] | 8.82 nM | 
25 | C[C@H]1COCCN1c1cc(C2(S(=O)(=O)CCCO)CC2)nc(-c2ccc(NC(=O)Nc3ncns3)cc2)n1 [Example 36b, 1-[4-[4-[1-(3-hydroxypropylsulfonyl)cyclopro-pyl]-6-[(3S)-3-methylmorpholin-4-yl]pyrimidin-2-yl]phenyl]-3-(1,2,4-thiadiazol-5-yl)urea] | 1.79 nM | 
26 | CCNC(=O)Nc1ccc(-c2nc(N3CCOC[C@@H]3C)cc(C3(S(=O)(=O)c4nc(C)cs4)CC3)n2)cc1 [Example 25e, 1-ethyl-3-[4-[4-[(3S)-3-methylmorpholin-4-yl]-6-[1-[(4-methyl-1,3-thiazol-2-yl)sulfonyl]cyclpropyl]pyrimidin-2-yl]phenyl]urea] | 0.277 nM | 
27 | C[C@H]1COCCN1c1cc(C2(S(=O)(=O)CCCO)CCC2)nc(-c2ccc(NC(=S)NCC(F)F)cc2)n1 [Example 99g, 3-(2,2-difluoroethyl)-1-[4-[4-[1-(3-hydroxypropylsulfonyl)cyclobutyl]-6-[(3S)-3-methylmorpholin-4-yl]pyrimidin-2-yl]phenyl]thiourea] | 15.2 nM | 
28 | C[C@H]1COCCN1c1cc(C2(S(=O)(=O)CCO)CC2)nc(-c2ccc(NC(=O)NCc3ncc[nH]3)cc2)n1 [Example 16h, 1-[4-[4-[1-(2-hydroxyethylsulfonyl)cyclopropyl]-6-[(3S)-3-methylmorpholin-4-yl]pyrimidin-2-yl]phenyl]-3-(1H-imidazol-2-ylmethyl)urea] | 186 nM | 
29 | C[C@H]1COCCN1c1cc(C2(S(C)(=O)=O)CC2)nc(-c2ccc(NC(=O)NCC(C)(C)CO)cc2)n1 [Example 2w, 3-(3-hydroxy-2,2-dimethylpropyl)-1-[4-[4-[(3S)-3-methylmorpholin-4-yl]-6-(1-methylsulfonylcyclopropyl)pyrimidin-2-yl]phenyl]urea] |  | 68.5 nM
